Laboratory results reported in patent US20030162777A1, “Novel N-acylated heterocycles” (Recordati S.A., priority 2001, published 2003).

How the values were obtained:
[1] = target: T1, human 5HT1A-serotonergic receptor (Homo sapiens, UniProt P08908); assay: Radioligand binding to recombinant 5-HT1A receptors; conditions: [3H]8-OH-DPAT 1 nM, membranes of HeLa cells with human 5-HT1A receptor; Ki from IC50 by Cheng & Prusoff; read-out: Binding affinity for 5HT1A receptors, Ki
T1 construct: expressed in transfected cells; host or cells: HeLa (human cell line), stably transfected; cell membranes used
T1 sequence (P08908 1-422): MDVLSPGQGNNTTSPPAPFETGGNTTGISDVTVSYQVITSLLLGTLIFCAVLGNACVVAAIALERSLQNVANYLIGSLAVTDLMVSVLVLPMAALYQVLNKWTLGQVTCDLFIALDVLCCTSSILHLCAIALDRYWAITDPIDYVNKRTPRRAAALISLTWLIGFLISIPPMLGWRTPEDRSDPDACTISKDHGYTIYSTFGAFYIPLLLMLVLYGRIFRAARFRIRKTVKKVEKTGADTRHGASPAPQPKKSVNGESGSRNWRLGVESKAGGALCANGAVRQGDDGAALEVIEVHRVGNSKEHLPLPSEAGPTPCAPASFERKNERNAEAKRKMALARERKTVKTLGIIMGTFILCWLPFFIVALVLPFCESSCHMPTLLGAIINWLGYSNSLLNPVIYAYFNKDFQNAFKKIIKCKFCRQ
In short: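 Displacement of 1 nM [3H]8-OH-DPAT (30 min, 30 °C, Tris-HCl pH 7.4 with MgCl2 and pargyline) from recombinant human 5-HT1A in transfected HeLa membranes, stopped by filtration. Specific binding defined against 10 μM 5-HT; IC50 by nonlinear fitting, then Ki by Cheng–Prusoff.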

[2] = system: conscious rats; assay: Effect on cystometric parameters in conscious rats after oral administration; type: in vivo, rat; conditions: 3 mg/kg p.o., 1-5 h after treatment, versus vehicle
Method: Male Sprague-Dawley rats [Crl: CD° (SD) BR] of 300-400 g supplied by Charles River Italia were used. The animals were housed with free access to food and water and maintained on a forced 12-hour-light/12-hour-dark cycle at 22-24° C. of temperature, except during the experiment. To quantify urodynamic parameters in conscious rats, cystometrographic studies were performed according to the procedure previously reported (Guarneri et al., Pharmacol. Res. 24: 175, 1991).
Briefly, the rats were anaesthetised by intraperitoneal administration of 3 ml/kg of Equithensin solution (pentobarbital 30 mg/kg and chloral hydrate 125 mg/kg) and placed in a supine position. An approximately-10-mm-long midline incision was made in the shaved and cleaned abdominal wall. The urinary bladder was gently freed from adhering tissues, emptied and then cannulated via an incision in the bladder body, using a polyethylene cannula (0.58-mm internal diameter, 0.96-mm external diameter) which was permanently sutured with silk thread. The cannula was exteriorised through a subcutaneous tunnel in the retroscapular area, where it was connected to a plastic adapter in order to avoid the risk of removal by the animal. For drug testing, the rats were utilised one day after implantation.
On the day of the experiment, the rats were placed in modified Bollman cages, i.e. restraining cages that were large enough to permit the rats to adopt a normal crouched posture, but narrow enough to prevent turning around. […] The intraluminal-pressure signal during infusion of saline into the bladder was continuously recorded on a polygraph (Rectigraph-8K San-ei with BM614/2 amplifier from Biomedica Mangoni) and, from the cystometrogram, two urodynamic parameters were evaluated: bladder volume capacity (BVC) and micturition pressure (MP). […] Basal BVC and MP values were evaluated as mean of the values observed in the cystometrograms recorded in an initial period of 30-60 minutes. […] The bladder infusion restarted and changes in BVC and MP were evaluated from the mean values obtained in the cystometrograms observed during 1, 2, 3, 4 and 5 hours after treatment. […]
All data were expressed as mean±standard error. Time-course data were analysed by S.A.S./STAT software, version 6.12. The difference between vehicle and active-treatment effect was evaluated by: General Linear Model Procedure—Repeated Measures Analysis of Variance: Univariate test of Hypotheses for within Subject Effects—Analysis of Variance of Contrast Variables. […]

Ki [1]: 3.3 nM
SMILES: O=C(C1CCCCC1)N1c2ccccc2CCC1CN1CCN(c2cccc3[nH]ccc23)CC1 (racemic) [Example 1, (±)1-(1-cyclohexanecarbonyl-1,2,3,4-tetrahydroquinoline-2-ylmethyl)-4-(4-indolyl)piperazine]
effect on bladder volume capacity (BVC) [2]: effective in increasing the bladder volume capacity
effect on micturition pressure (MP) [2]: without significant effects
